From article PMC11327230, “Scalability study on [^133La]LaCl3 production with a focus on potential clinical applications” (EJNMMI Radiopharmacy and Chemistry, 2024)

Experiments:
[1] = 200 MBq; ref Afshar-Oromieh et al. [2016]; cited from earlier work
[2] = Stability of ^133La-PSMA radioconjugates in human serum, by radio-TLC; assay type: in vitro ADME; conditions: for stability in serum: ^133La-radioconjugate, up to / after 24 h; for HS stability 1 h / HS stability 4 h / HS stability 24 h: human serum/PBS pH 7, 37 °C, tested thrice
Description: Apparent molar activity (AMA) was quantified by titration with the macropa chelator in combination with radio-TLC. 3–10 µL [^133La]LaCl3 (4–7 MBq, approximately 10 MBq at EOB) were added to a buffered solution (ammonium acetate 200 mM, pH 6, total volume 100 µL) containing different chelator concentrations: 0.20 µM, 0.40 µM, 0.80 µM and 1.60 µM. These solutions were mixed at 500 rpm for 15 min at room temperature. The formed [^133La]La-macropa complex was analyzed using silica gel coated aluminum plates and developed with 50 mM EDTA as eluent. While the free lanthanum runs to the front, the complex remains at the start.
To assess the serum stability of both radiolabeled compounds, 75 µL of the ^133La-PSMA radioconjugates, accounting for ca. 50 MBq ^133La, were added to 75 µL of PBS buffer pH 7 and 150 µL of human serum and mixed at 500 rpm for 24 h at 37 °C. Silica gel plates were spotted after 1 h, 4 h and 24 h to evaluate the evolution of the complex stability. Each ^133La-PSMA radioligand and its molar activity was tested thrice.

[3] = as above; assay type: in vitro ADME; conditions: after 24 h in human serum, radio-TLC (Fig. 11)

| stability in serum ([2]; molar activity not given) [%] | HS stability 1 h ([2]; molar activity 40 GBq/µmol) [%] | HS stability 1 h ([2]; molar activity 80 GBq/µmol) [%] | HS stability 4 h ([2]; molar activity 40 GBq/µmol) [%] | HS stability 4 h ([2]; molar activity 80 GBq/µmol) [%] | HS stability 24 h ([2]; molar activity 40 GBq/µmol) [%] | HS stability 24 h ([2]; molar activity 80 GBq/µmol) [%] | stability in serum ([2]; molar activity not stated in the sentence) [%] | stability in serum ([2]; molar activity not stated in the sentence, listed as mcp-M-PSMA) [%] | free [^133Ba]Ba^2+ as share of the total radioactivity [3] [%] | Structure (SMILES) | effective dose [1] [mSv] |
| --- | --- | --- | --- | --- | --- | --- | --- | --- | --- | --- | --- |
| – | – | – | – | – | – | – | – | – | – | O=C([O-])CN(CCN(CC(=O)[O-])Cc1cc(CCC(=O)NCCCCCC(=O)NCCCC[C@H](NC(=O)N[C@@H](CCC(=O)O)C(=O)O)C(=O)O)ccc1[O-])Cc1cc(CCC(=O)O)ccc1[O-].[68Ga+3].[OH3+] [[^68Ga]Ga-PSMA-11] | 4.7 |
| > 98.5 ± 0.3 | 99.37 ± 0.12 | 99.57 ± 0.12 | 99.40 ± 0.01 | 99.60 ± 0.08 | 97.37 ± 0.17 | 98.5 ± 0.3 | – | – | – | O=C(O)CC[C@H](NC(=O)N[C@@H](CCCCNC(=O)[C@H](Cc1ccc2ccccc2c1)NC(=O)[C@H]1CC[C@H](CNC(=O)CN2CCN(CC(=O)O)CCN(CC(=O)O)CCN(CC(=O)O)CC2)CC1)C(=O)O)C(=O)O [[^133La]La-PSMA-617] | – |
| – | 100 ± 0 | 99.80 ± 0.01 | 100 ± 0 | 99.83 ± 0.08 | 99.57 ± 0.25 | 99.20 ± 0.08 | > 99 | > 99.20 ± 0.08 | – | O=C(O)CCC(NC(=O)NC(CCCCNC(=O)C(Cc1ccc2ccccc2c1)NC(=O)C1CCC(CNC(=O)CCCCn2cc(COc3cc(CN4CCOCCOCCN(Cc5cccc(C(=O)O)n5)CCOCCOCC4)nc(C(=O)O)c3)nn2)CC1)C(=O)O)C(=O)O (centres unmarked) [[^133La]La-mcp-M-PSMA] | – |
| – | – | – | – | – | – | – | – | – | 1.1 | [133La+3].[Cl-].[Cl-].[Cl-] [[^133La]LaCl3] | – |
